Measured values taken from the NIST ThermoML archive (doi:10.1016/j.fluid.2007.01.043).
± gives the expanded uncertainty stated by the source.

Experiment: cn = amount concentration of the nth substance listed, in mol/dm3
Details: 308 K, Liquid; for mass density: 101 kPa; for viscosity: 101.3 kPa

SMILES	mass density (c1 = 0.06)	mass density (c1 = 0.1)	viscosity (c1 = 0.06)	viscosity (c1 = 0.1)
O=[N+]([O-])[O-].O=[N+]([O-])[O-].[Cu+2] [copper dinitrate] + O	1002.3 ± 0.8 kg/m3	1008.6 ± 0.8 kg/m3	0.7347 ± 0.019 mPa·s	0.7487 ± 0.02 mPa·s
[Cl][Ni][Cl] [nickel chloride (NiCl2)] + O	994.09 ± 0.7 kg/m3	1004 ± 0.7 kg/m3	0.7261 ± 0.019 mPa·s	0.7469 ± 0.019 mPa·s
